Reference: PMC4018175 (Journal of Medicinal Chemistry, 2014)
Where a name gives a salt, the structure may show the parent alone.

Tests used:
P2Y6R [1] = target: T1, P2Y6R (Homo sapiens, UniProt Q15077); test: Fluorescence microscopy of P2Y6R-expressing 1321N1 astrocytoma cells; assay type: cell-based; conditions: 1 μM, 30 min at 37 °C, in presence and absence of 118 (10 μM)
P2Y6R [2] = target: T1, P2Y6R; test: Fluorescent ligand binding of 28 by flow cytometry; conditions: 100 nM for 30 min at 37 °C in the presence of 125 (100 μM)

T1 sequence (Q15077 whole entry): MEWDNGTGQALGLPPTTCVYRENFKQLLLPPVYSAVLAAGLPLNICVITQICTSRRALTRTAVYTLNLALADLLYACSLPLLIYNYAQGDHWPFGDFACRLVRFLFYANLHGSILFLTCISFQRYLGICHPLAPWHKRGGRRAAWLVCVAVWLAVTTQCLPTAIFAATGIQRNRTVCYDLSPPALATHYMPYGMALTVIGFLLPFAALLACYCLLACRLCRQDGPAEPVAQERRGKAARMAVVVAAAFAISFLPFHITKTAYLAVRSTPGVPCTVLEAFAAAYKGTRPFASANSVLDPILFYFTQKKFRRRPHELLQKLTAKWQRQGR

Cell labeling by fluorescent ligand (FCM) (P2Y6R [2]): significant cell labeling
SMILES: O=C(CCCCCNC(=O)COc1ccc(/C=C/c2ccc3n2[B-](F)(F)[N+]2=C(c4cccs4)C=CC2=C3)cc1)NCCCn1cc(CCNC(=O)COc2ccc(CCCO/N=c3/ccn([C@@H]4O[C@H](COP(=O)(O)OP(=O)(O)OP(=O)(O)O)[C@@H](O)[C@H]4O)c(=O)[nH]3)cc2)nn1 [Compound 28, N^4-(3-((4-O-CH2CONH-(CH2)2(BODIPY-1H-1,2,3-Triazol-4-yl))phenyl)propyloxy)cytidine-5′-triphosphate Triethylammonium Salt]
Labeling of cells expressing the receptor (fluorescence microscopy) (P2Y6R [1]): specifically labeled cells expressing the receptor
